Experimental findings from patent publication US12558371B2, “Chondroitin sulfate polysaccharide, and semi-synthetic preparation method therefor and use thereof” (Institute of Materia Medica, Chinese Academy of Medical …, priority 2019, dated 2026) are described below.

Experiment [1] relates to DSS-induced UC model mice. Description: DSS-induced acute ulcerative colitis (UC) mouse model. The experiment is classed as in vivo, C57BL/6J mice. The method, then:
Pharmacodynamics of the Glycan 3 (referred to as SEMI5) prepared in Example 3 was evaluated on anti-DSS models, specifically as follows:
C57BL/6J mice, male (18 g to 20 g), 6 mice per group, which were purchased from Beijing Huafukang Biotechnology Co., Ltd., with a license No.: SCXK (Beijing) 2014-0004.
(1) Normal control group (control group): intragastrically administered with sodium carboxymethylcellulose at a concentration of 0.5% by mass.
(2) UC (Ulcerative colitis) model group (model group): intragastrically administered with sodium carboxymethylcellulose at a concentration of 0.5% by mass.
(3) SASP (a positive drug salazosulfapyridine) group: Shanghai Xinyi Pharmaceutical Co., Ltd. (Batch No.: 036151102), 500 mg/kg, which was formulated with sodium carboxymethylcellulose at a concentration of 0.5% by mass and stored at 4° C., and intragastrically administered once a day.
(4) SEMI5-50 group: 50 mg/kg, which was formulated with distilled water and stored at 4° C., and intragastrically administered once a day.
(5) SEMI5-150 group: 150 mg/kg, which was formulated with distilled water and stored at 4° C., and intragastrically administered once a day.
3. Experimental method After being adaptively raised for one week in an SPF animal house (experimental animal use license No.: SYXK (Beijing) 2014-0023), the C57BL/6J mice were randomly divided into 5 groups according to the above protocols. Mice in the UC model group and administration groups were modeled with DSS (MP, CA9011-18-1, US) every day according to the modeling method for ulcerative colitis that had been established in the laboratory. The normal control group (control group) and UC model group (model group) were intragastrically administered with sodium carboxymethylcellulose at a concentration of 0.5% by mass once a day. The SASP group, SEMI5-50 group, and SEMI5-150 group were intragastrically administered once a day according to the experimental protocols in the section of “Experimental groups”. 7 d after modeling, typical UC pathological changes such as obvious listlessness, activity reduction, weight loss, watery stool, and hematochezia occurred in animals of the UC model group. The experiments were terminated, and animals in each group were sacrificed. Each of evaluation indexes related with colitis was detected (as shown in the subsequent section of experimental results). The anti-UC pharmacodynamic activity of each of the compounds was evaluated comprehensively.
The animals were evaluated by the DAI scores in terms of indexes such as animal body weight loss, stool property, hematochezia. The lower the DAI score was, the closer was the condition of the animal to a normal physiological status.

Experiment [2] has as its system mouse ear acute swelling inflammation models caused by croton oil. Description: Mouse ear acute swelling inflammation model caused by croton oil. It counts as in vivo, Balb/c mice. Conditions: 5 mg/kg, once a day for 3 d. As to the method:
Anti-inflammatory effects of the glycans 1 to 5 prepared in Examples 1 to 5 were evaluated, specifically as follows:
(1) Test method: experiments for evaluating pharmacodynamic activities of CS compounds in mouse ear acute swelling inflammation models caused by croton oil
Animals: Balb/c mice, male (20 g to 22 g); 8 mice per group.
Groups: model group, positive drug (indometacin) group (5 mg/kg), natural extract (CS-E) group (200 mg/kg), and glycan groups (200 mg/kg, 100 mg/kg, and 50 mg/kg). Each of the positive drug and the compounds of CS series was formulated with sodium carboxymethylcellulose at a concentration of 0.5% by mass, and stored in a refrigerator at 4° C.
Administration and test: the mice were administered for 3 d, once a day. After the last administration, an induction rate on mouse ear swelling (%) and an inhibition rate on the ear swelling degree (%) by the compounds were calculated.
Statistical analysis: the experimental results were all expressed as “mean±standard deviation”. A statistical difference between two groups was calculated and analyzed by the t-test method. * represents p<0.05, and ** represents p<0.01.

Setting [3] is: 500 mg/kg intragastrically once a day, 7 d.

Marks after values point to notes of the source that are not given here.

As to `O=C(O)c1cc(/N=N/c2ccc(S(=O)(=O)Nc3ccccn3)cc2)ccc1O` [SASP, salazosulfapyridine], in experiment [1] (500 mg/kg), the “Effect on body weight reduction vs. UC model group (in words)” value is recorded as “failed to effectively alleviate the body weight reduction”, the “Effect on colon contracture vs. UC model group (in words)” value was “failed to effectively alleviate the colon contracture”, the “Effect on disease complex index DAI scores vs. UC model group (in words)” value is on record as “improved to some extent” and the “Overall anti-UC activity (conclusion in words)” value is “exhibited a certain anti-UC activity”. Besides, in experiment [1] (setting [3]), the “Colon contracture percentage (%)” value was determined as 31.39%, the “Colon length (cm)” value is 5.29 ± 0.61 cm, the “DAI complex index inhibition rate (%)” value is on record as 14.68* % and the “Disease activity index DAI” value is given as 3.10 ± 0.59. The “Body weight (g) X ± SD, End” value in experiment [1] (500 mg/kg intragastrically once a day, end, 7 d after modeling) amounted to 18.76 ± 1.09 g. For the same compound, the “Body weight (g) X ± SD, Start” value in experiment [1] (500 mg/kg intragastrically once a day, start of experiment) is 21.97 ± 0.71 g.
In the case of `COc1ccc2c(c1)c(CC(=O)O)c(C)n2C(=O)c1ccc(Cl)cc1` [Indometacin, indometacin], the figures for the “Inhibition rate (%)” value in experiment [2] (Table 2), in experiment [2] (Table 3) and in experiment [2] (Table 4) were 26.01%, 27.70% and 41.06%, respectively. In addition, the “Swelling rate (%) Mean ± SD” value is given as 70.25 ± 20.97* % in experiment [2] (Table 2), 74.43 ± 20.97* % in experiment [2] (Table 3) and 45.34 ± 6.92* % in experiment [2] (Table 4).
